Experiments:
[1] = target: 5-HT2B (Homo sapiens (Human), UniProt P41595); experiment: 5-HT2B Gq-mediated calcium flux functional assay; format: cell-based
[2] = target: 5-HT2A (Homo sapiens (Human), UniProt P28223); experiment: 5-HT2A Gq-mediated calcium flux functional assay; format: cell-based
[3] = target: 5-HT2C (Homo sapiens (Human), UniProt P28335); experiment: 5-HT2C Gq-mediated calcium flux functional assay; format: cell-based
[4] = target: Serotonin 5-HT2A (human) (Homo sapiens (Human), UniProt P28223); experiment: 5-HT2A receptor binding, [3H]-ketanserin competition in membrane fractions; details: for 5-HT2A pKi ± SEM: 1 nM [3H]-ketanserin, Cheng-Prusoff, N=1-3
[5] = target: 5-HT1A (Homo sapiens (Human), UniProt P08908); experiment: 5-HT1A Gi/o-mediated cAMP inhibition, GloSensor assay; format: cell-based
[6] = cAMP inhibition, 0.2 μM isoproterenol, IA = Inactive

5-HT2B, sequence (P41595 whole entry): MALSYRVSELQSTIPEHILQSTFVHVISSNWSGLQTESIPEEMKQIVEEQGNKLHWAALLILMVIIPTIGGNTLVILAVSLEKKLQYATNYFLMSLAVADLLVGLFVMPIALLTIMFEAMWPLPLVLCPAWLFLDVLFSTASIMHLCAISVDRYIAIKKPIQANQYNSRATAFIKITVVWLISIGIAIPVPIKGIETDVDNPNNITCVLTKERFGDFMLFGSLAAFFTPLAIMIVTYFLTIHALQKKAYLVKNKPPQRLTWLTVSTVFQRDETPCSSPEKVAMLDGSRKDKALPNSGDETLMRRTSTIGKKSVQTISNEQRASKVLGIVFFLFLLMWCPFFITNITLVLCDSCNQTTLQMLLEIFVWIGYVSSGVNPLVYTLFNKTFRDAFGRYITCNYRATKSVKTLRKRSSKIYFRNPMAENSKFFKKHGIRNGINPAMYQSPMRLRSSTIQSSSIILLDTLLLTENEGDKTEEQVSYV
5-HT2C, sequence (P28335 whole entry, looked up): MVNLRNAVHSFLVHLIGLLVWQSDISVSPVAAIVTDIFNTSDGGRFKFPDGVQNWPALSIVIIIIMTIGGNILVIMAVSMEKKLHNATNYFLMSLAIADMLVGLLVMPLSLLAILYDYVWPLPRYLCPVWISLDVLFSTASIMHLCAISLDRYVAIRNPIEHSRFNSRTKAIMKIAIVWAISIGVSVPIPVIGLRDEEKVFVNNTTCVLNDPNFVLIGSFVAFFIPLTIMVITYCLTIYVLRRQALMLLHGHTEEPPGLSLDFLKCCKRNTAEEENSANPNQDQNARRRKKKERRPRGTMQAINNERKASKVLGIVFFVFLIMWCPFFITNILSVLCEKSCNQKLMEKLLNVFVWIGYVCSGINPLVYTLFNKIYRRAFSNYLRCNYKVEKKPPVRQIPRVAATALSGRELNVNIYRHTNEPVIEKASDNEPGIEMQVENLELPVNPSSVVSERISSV

Structure (SMILES)	5-HT2B-Ca2+ FLUX Emax (% 5-HT) ([1]; IA = Inactive, N=1-3)	5-HT2B-Ca2+ FLUX pEC50 ([1]; IA = Inactive, N=1-3)	5-HT2A-Ca2+ FLUX Emax (% 5-HT) ([2]; IA = Inactive, N=1-3)	5-HT2A-Ca2+ FLUX pEC50 ([2]; IA = Inactive, N=1-3)	5-HT2C-Ca2+ FLUX Emax (% 5-HT) ([3]; IA = Inactive, N=1-3)	5-HT2C-Ca2+ FLUX pEC50 ([3]; IA = Inactive, N=1-3)	5-HT2A pKi ± SEM [4]	5-HT1A-cAMP Emax (% 5-HT) [5, 6] [% 5-HT]	5-HT1A-cAMP pEC50 [5, 6]	EC50 [1] [nM]	EC50 [2] [nM]	EC50 [3] [nM]	EC50 [5] [nM]	Ki [4] [nM]
CN(C)CCc1c[nH]c2ccc(F)cc12 [Compound 5-F-DMT]	61.1 ± 2.0	8.70 ± 0.11	96.6 ± 1.0	8.70 ± 0.03	100.3 ± 1.8	8.8 ± 0.06	6.65	94.2 ± 3.4	6.69 ± 0.08					
CC(C)N(C)CCc1c[nH]c2ccc(F)cc12 [Example 2, N-(2-(5-fluoro-1H-indol-3-yl)ethyl)-N-methylpropan-2-amine]	68.6 ± 1.7		95.1 ± 0.8		64.6 ± 1.7		6.36 ± 0.003	93.2 ± 4.7		3.31	1.95	21.9	1820	
CCCN(CCC)CCc1c[nH]c2ccc(F)cc12 [Example 5, N-(2-(5-fluoro-1H-indol-3-yl)ethyl)-N-propylpropan-1-amine]	104.1 ± 0.7		106.7 ± 0.8		109.3 ± 3.1		6.20	87.5 ± 1.6		0.759	0.724	3.39	74.1	
CCCN(CC)CCc1c[nH]c2ccc(F)cc12 [Example 6, N-ethyl-N-(2-(5-fluoro-1H-indol-3-yl)ethyl)propan-1-amine]	101.2 ± 0.7		103.5 ± 0.8		111.7 ± 2.5		6.06 ± 0.13	90.5 ± 1.8		1.1	0.776	1.78	49	
C=CCN(C)CCc1c[nH]c2ccc(F)cc12 [Example 10, N-(2-(5-fluoro-1H-indol-3-yl)ethyl)-N-methylprop-2-en-1-amine]	73.8 ± 2.3		100.3 ± 2.2		97.4 ± 2.6			97.8 ± 2.7		0.955	0.479	3.02	89.1	309
C=CCN(CCc1c[nH]c2ccc(F)cc12)C(C)C [Example 11, N-(2-(5-fluoro-1H-indol-3-yl)ethyl)-N-isopropylprop-2-en-1-amine]	98.8 ± 1.6		105.4 ± 2.1		101.5 ± 2.8			95.5 ± 1.7		0.794	0.617	20.4	151	
CCN(C)CCc1c[nH]c2ccc(F)cc12 [Example 12, N-ethyl-2-(5-fluoro-1H-indol-3-yl)-N-methylethan-1-amine]	65.8 ± 1.6		101.8 ± 1.1		117.2 ± 2.5		6.66 ± 0.12	91.1 ± 1.7		2.29	1.74	1.58	75.9	

— patent publication US20240286998A1, “F[…], ANALOGUES THEREOF, AND METHODS USING SAME” (Saint Joseph's University, priority 2021, published 2024)
